Measured values reported in patent publication US10000496B2, “Compositions useful for treating disorders related to kit and PDGFR” (BLUEPRINT MEDICINES CORPORATION, priority 2015, dated 2018).

Legend:
[1] = target: T1, D816V Kit (Homo sapiens, UniProt P10721, D816V); assay: Kit D816V assay at Km (Caliper electrophoretic mobility shift); details: D816V Kit 0.5 nM, 15 uM ATP (Km), 1 uM Srctide, 25 C, 90 minutes; read-out: Biochemical Activity D816V IC50
T1 construct: purchased Carna Bioscience 08-156
T1 sequence (P10721 26-976 D816V): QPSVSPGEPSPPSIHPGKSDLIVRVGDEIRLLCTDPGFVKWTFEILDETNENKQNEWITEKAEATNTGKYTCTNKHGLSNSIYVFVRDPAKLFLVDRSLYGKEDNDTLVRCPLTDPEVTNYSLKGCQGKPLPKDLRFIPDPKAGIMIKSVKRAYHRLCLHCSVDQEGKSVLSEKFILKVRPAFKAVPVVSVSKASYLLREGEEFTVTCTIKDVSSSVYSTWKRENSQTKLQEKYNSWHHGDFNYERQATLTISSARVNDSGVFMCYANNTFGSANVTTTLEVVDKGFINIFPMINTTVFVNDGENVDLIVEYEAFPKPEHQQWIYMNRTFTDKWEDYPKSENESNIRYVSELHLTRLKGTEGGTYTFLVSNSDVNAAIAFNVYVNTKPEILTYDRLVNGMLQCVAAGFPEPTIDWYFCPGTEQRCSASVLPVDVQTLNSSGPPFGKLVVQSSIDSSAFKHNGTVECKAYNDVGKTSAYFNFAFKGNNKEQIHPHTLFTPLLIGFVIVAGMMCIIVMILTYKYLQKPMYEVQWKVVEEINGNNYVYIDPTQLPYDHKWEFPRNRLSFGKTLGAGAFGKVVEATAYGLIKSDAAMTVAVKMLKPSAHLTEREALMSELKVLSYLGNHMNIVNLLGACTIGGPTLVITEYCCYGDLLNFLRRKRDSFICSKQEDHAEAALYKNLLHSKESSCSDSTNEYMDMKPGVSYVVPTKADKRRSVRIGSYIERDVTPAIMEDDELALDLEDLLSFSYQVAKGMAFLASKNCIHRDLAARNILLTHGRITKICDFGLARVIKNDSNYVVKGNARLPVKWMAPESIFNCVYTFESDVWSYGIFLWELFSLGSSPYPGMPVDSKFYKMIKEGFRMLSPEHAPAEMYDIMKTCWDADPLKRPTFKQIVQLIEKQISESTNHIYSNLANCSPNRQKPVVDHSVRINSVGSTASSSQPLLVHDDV
Method: In order to assess the activity of chemical compounds against the relevant kinase of interest, the Caliper LifeSciences electrophoretic mobility shift technology platform is used. Fluorescently labeled substrate peptide is incubated in the presence of kinase and ATP so that a […] proportion of the peptide is phosphorylated. At the end of the reaction, the mix of phosphorylated (product) and non-phosphorylated (substrate) peptides are passed through the microfluidic system of the Caliper EZ Reader 2, under an applied potential difference. The presence of the phosphate group on the product peptide provides a difference in mass and charge between those of the substrate peptide, resulting in a separation of the substrate and product pools in the sample. As the pools pass a LEDS within the instrument, these pools are detected and resolved as separate peaks. The ratio between these peaks therefore reflects the activity of the chemical matter at that concentration in that well, under those conditions.
Kit D816V assay at Km: In each well of a 384-well plate, 0.04 ng/ul (0.5 nM) of D816V Kit (Carna Bioscience 08-156) was incubated in a total of 12.5 ul of buffer (100 mM HEPES pH 7.5, 0.015% Brij 35, 10 mM MgCl2, 1 mM DTT) with 1 uM Srctide (5-FAM-GEEPLYWSFPAKKK-NH2) and 15 uM ATP at 25 C for 90 minutes in the presence or absence of a dosed concentration series of compound (1% DMSO final concentration). The reaction was stopped by the addition of 70 ul of Stop buffer (100 mM HEPES pH 7.5, 0.015% Brij 35, 35 mM EDTA and 0.2% of Coating Reagent 3 (Caliper Lifesciences)). The plate was then read on a Caliper EZReader 2 (protocol settings:—1.9 psi, upstream voltage—700, downstream voltage—3000, post sample sip 35s). Data was normalized to 0% and 100% inhibition controls and the IC50 or EC50 calculated using a 4-parameter fit using GraphPad Prism.

[2] = target: T2, Kit D816V in HMC1.2 cells (Homo sapiens, UniProt P10721, D816V/V560G); assay: HMC1.2 autophosphorylation assay (Kit autophosphorylation at tyrosine 719, AlphaLISA); type: cell-based; details: HMC1.2 mast cell leukemia cells (Kit V560G and D816V), phospho-Y719 c-Kit, 90 minutes; read-out: Cellular Activity IC50
T2 construct: endogenous in cells; host or cells: HMC1.2
T2 sequence (P10721 26-976 V560G/D816V): as the sequence (P10721 26-976 D816V) above, with V535G counted along it
Method: 10,000 HMC1.2 cells were incubated in 22 ul culture media (phenol-red free IMDM, no serum) in each well of a 384-well plate and serum starved overnight in a tissue culture incubator (5% CO2, 37° C.). A 10-point dose concentration series of compound (25 uM-95.4 pM) were then added to the cells in a volume of 3.1 ul to each well (0.25% DMSO final concentration). After 90 minutes, 6 ul of 5× AlphaLISA Lysis Buffer (Perkin Elmer) supplemented with a protease and phosphatase inhibitor cocktail (Cell Signaling Technologies) was added to each well and shaken at 450 rpm for 15 minutes at 4° C. 10 ul of phospho-Y719 c-Kit and total c-Kit antibodies (15 nM final concentration, Cell Signaling Technologies) and 50 ug/ml AlphaLISA rabbit acceptor beads (Perkin Elmer) were added to each well and shaken at 300 rpm at room temperature for 2 hours. 10 ul of 100 ug/ml streptavidin donor beads (Perkin Elmer) were added to each well, blocked from light with aluminum adhesive and shaken at 300 rpm at room temperature for 2 hours. Fluorescence signal was obtained on Envision (Perkin Elmer) by AlphaScreen 384 well HTS protocol. Data was normalized to 0% and 100% inhibition controls and the IC50 was calculated using Four Parameter Logistic IC50 curve fitting.
This cell line contains Kit mutated at positions V560G and D816V resulting in constitutive activation of the kinase. The following compounds were tested in an assay to measure direct inhibition of Kit D816V kinase activity by assaying Kit autophosphorylation at tyrosine 719 on the Kit protein.

SMILES: CCC(C(=O)Nc1ccc(-c2ncnn3cc(-c4cnn(C)c4)cc23)cc1)c1ccc(Cl)cc1 (stereo not drawn) [Compound 43]
- IC50 [1]: 1.01 to 10 nM
- IC50 [2]: 10 to 100 nM

SMILES: CC[C@H](C(=O)Nc1ccc(-c2ncnn3cc(-c4cnn(C)c4)cc23)cc1)c1ccc(Cl)cc1 [Compound 44]
- IC50 [1]: 10 to 100 nM
- IC50 [2]: 100 to 1000 nM

SMILES: Cn1cc(-c2cc3c(-c4ccc(NC(=O)[C@@](C)(N)c5ccc(Cl)cc5)cc4)ncnn3c2)cn1 [Compound 45, 2-amino-2-(4-chlorophenyl)-N-(4-(6-(1-methyl-1H-pyrazol-4-yl)pyrrolo[1,2-f][1,2,4]triazin-4-yl)phenyl)propanamide]
- IC50 [1]: 1.01 to 10 nM
- IC50 [2]: < 10 nM

SMILES: Cn1cc(-c2cc3c(-c4ccc(NC(=O)[C@](C)(N)c5ccc(Cl)cc5)cc4)ncnn3c2)cn1 [Compound 46, 2-amino-2-(4-chlorophenyl)-N-(4-(6-(1-methyl-1H-pyrazol-4-yl)pyrrolo[1,2-f][1,2,4]triazin-4-yl)phenyl)propanamide]
- IC50 [1]: 1.01 to 10 nM
- IC50 [2]: < 10 nM

SMILES: Cn1cc(-c2cc3c(-c4ccc(NC(=O)C(C)(N)c5ccc(Cl)cc5)cc4)ncnn3c2)cn1 (stereo not drawn) [Compound 47, 2-amino-2-(4-chlorophenyl)-N-(4-(6-(1-methyl-1H-pyrazol-4-yl)pyrrolo[1,2-f][1,2,4]triazin-4-yl)phenyl)propanamide]
- IC50 [1]: 1.01 to 10 nM
- IC50 [2]: < 10 nM

SMILES: CO[C@@H](C(=O)Nc1ccc(-c2ncnn3cc(-c4cnn(C)c4)cc23)cc1)c1ccc(Cl)cc1 [Compound 48]
- IC50 [1]: < 1 nM
- IC50 [2]: < 10 nM

SMILES: Cn1cc(-c2cc3c(-c4ccc(NC(=O)[C@@](C)(O)c5ccc(Cl)cc5)cc4)ncnn3c2)cn1 [Compound 49, 2-(4-chlorophenyl)-2-hydroxy-N-(4-(6-(1-methyl-1H-pyrazol-4-yl)pyrrolo[1,2-f][1,2,4]triazin-4-yl)phenyl)propanamide]
- IC50 [1]: 1.01 to 10 nM
- IC50 [2]: < 10 nM

SMILES: Cn1cc(-c2cc3c(-c4ccc(NC(=O)[C@](C)(O)c5ccc(Cl)cc5)cc4)ncnn3c2)cn1 [Compound 50, 2-(4-chlorophenyl)-2-hydroxy-N-(4-(6-(1-methyl-1H-pyrazol-4-yl)pyrrolo[1,2-f][1,2,4]triazin-4-yl)phenyl)propanamide]
- IC50 [1]: 10 to 100 nM
- IC50 [2]: 100 to 1000 nM

SMILES: Cn1cc(-c2cc3c(-c4ccc(NC(=O)C(C)(O)c5ccc(Cl)cc5)cc4)ncnn3c2)cn1 (stereo not drawn) [Compound 51]
- IC50 [1]: 1.01 to 10 nM
- IC50 [2]: 10 to 100 nM

SMILES: COC(C(=O)Nc1ccc(-c2ncnn3cc(-c4cnn(C)c4)cc23)cc1)c1ccc(Cl)cc1 (stereo not drawn) [Compound 52]
- IC50 [1]: 1.01 to 10 nM
- IC50 [2]: 10 to 100 nM

SMILES: CO[C@H](C(=O)Nc1ccc(-c2ncnn3cc(-c4cnn(C)c4)cc23)cc1)c1ccc(Cl)cc1 [Compound 53]
- IC50 [1]: 10 to 100 nM
- IC50 [2]: 100 to 1000 nM

SMILES: Cn1cc(-c2cc3c(-c4ccc(NC(=O)Cc5ccc(Cl)cc5Cl)cc4)ncnn3c2)cn1 [Compound 54]
- IC50 [1]: 1.01 to 10 nM
- IC50 [2]: < 10 nM

SMILES: O=S(=O)(Nc1ccc(-c2ncnn3cc(-c4ccc(F)cc4)cc23)cc1)c1ccc(Cl)cc1 [Compound 55]
- IC50 [1]: > 100 nM
- IC50 [2]: 1000 to 10000 nM

SMILES: Cn1cc(-c2cc3c(-c4ccc(NS(=O)(=O)c5ccc(Cl)cc5)cc4F)ncnn3c2)cn1 [Compound 56]
- IC50 [1]: 1.01 to 10 nM
- IC50 [2]: 100 to 1000 nM

SMILES: Cn1cc(-c2cc3c(-c4ccc(NS(=O)(=O)c5ccc(Cl)cc5)c(F)c4)ncnn3c2)cn1 [Compound 57]
- IC50 [1]: 10 to 100 nM
- IC50 [2]: 1000 to 10000 nM

SMILES: CC(C)C(C(=O)Nc1ccc(-c2ncnn3cc(-c4cnn(C)c4)cc23)cc1)c1ccc(Cl)cc1 (stereo not drawn) [Compound 58]
- IC50 [1]: 10 to 100 nM
- IC50 [2]: 10 to 100 nM

SMILES: CN(C)C(C(=O)Nc1ccc(-c2ncnn3cc(-c4cnn(C)c4)cc23)cc1)c1ccc(Cl)cc1 (stereo not drawn) [Compound 59, 2-(4-chlorophenyl)-2-(dimethylamino)-N-(4-(6-(1-methyl-1H-pyrazol-4-yl)pyrrolo[1,2-f][1,2,4]triazin-4-yl)phenyl)acetamide]
- IC50 [1]: 1.01 to 10 nM
- IC50 [2]: 10 to 100 nM

SMILES: CC(C)(O)Cn1cc(-c2cc3c(-c4ccc(NC(=O)Cc5ccc(Cl)cc5)cc4)ncnn3c2)cn1 [Compound 60]
- IC50 [1]: 1.01 to 10 nM
- IC50 [2]: 10 to 100 nM

SMILES: CC(C)(C)Oc1ccc(-c2cc3c(-c4ccc(NC(=O)Cc5ccc(Cl)cc5)cc4)ncnn3c2)cc1 [Compound 61]
- IC50 [1]: 10 to 100 nM
- IC50 [2]: 1000 to 10000 nM

SMILES: CC(C)Oc1ccc(-c2cc3c(-c4ccc(NS(=O)(=O)c5ccc(Cl)cc5)cc4)ncnn3c2)cc1 [Compound 62, 4-chloro-N-(4-(6-(4-isopropoxyphenyl)pyrrolo[2,1-f][1,2,4]triazin-4-yl)phenyl)benzenesulfonamide]
- IC50 [1]: 10 to 100 nM
- IC50 [2]: 1000 to 10000 nM

SMILES: CCC(=O)N1CC=C(c2cc3c(-c4ccc(NS(=O)(=O)c5ccc(Cl)cc5)cc4)ncnn3c2)CC1 [Compound 63]
- IC50 [1]: < 1 nM
- IC50 [2]: 10 to 100 nM

SMILES: CCOC(=O)N1CC=C(c2cc3c(-c4ccc(NS(=O)(=O)c5ccc(Cl)cc5)cc4)ncnn3c2)CC1 [Compound 64, ethyl 4-(4-(4-((4-chlorophenyl)sulfonamido)phenyl)pyrrolo[2,1-f][1,2,4]triazin-6-yl)-3,6-dihydropyridine-1(2H)-carboxylate]
- IC50 [1]: 1.01 to 10 nM
- IC50 [2]: 10 to 100 nM

SMILES: CS(=O)(=O)c1ccc(-c2cc3c(-c4ccc(NS(=O)(=O)c5ccc(Cl)cc5)cc4)ncnn3c2)cc1 [Compound 65]
- IC50 [1]: 10 to 100 nM
- IC50 [2]: 100 to 1000 nM

SMILES: O=C(c1ccc(-c2cc3c(-c4ccc(NS(=O)(=O)c5ccc(Cl)cc5)cc4)ncnn3c2)cc1)N1CCC1 [Compound 66]
- IC50 [1]: > 100 nM
- IC50 [2]: 1000 to 10000 nM
